According to the supplement of paper PMC10307832:

How the values were obtained:
Assay in all cases: relative viability (nuclei count vs DMSO), 5 days (fraction); higher = more cells survive
GW-2580 + Phenformin = compound: COC1=CC=C(C=C1)COC2=C(C=C(C=C2)CC3=CN=C(N=C3N)N)OC [GW-2580] + N=C(N)NC(=N)NCCc1ccccc1 [Phenformin] (partner 250 µM)
How it was run: (§1)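 Relative viability divides the nuclei count in treated wells by that in vehicle wells. Lung cancer cell lines were seeded in 1536-well plates, dosed by pin tool the next day, and fixed and stained after 5 days in one step with final 0.05% Triton X-100, 1% formaldehyde and 1 ug/ml Hoechst. Dosing was a single drug or a fixed anchor-drug dose plus five library-drug doses (not always all listed) in √10 steps, and values are medians of duplicate plates imaged at 4×.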

Fedratinib + Dasatinib = compound: Cc1cnc(Nc2ccc(OCCN3CCCC3)cc2)nc1Nc1cccc(S(=O)(=O)NC(C)(C)C)c1 [Fedratinib] + Cc1nc(Nc2ncc(C(=O)Nc3c(C)cccc3Cl)s2)cc(N2CCN(CCO)CC2)n1 [Dasatinib] (partner 0.075 µM)
How it was run: as §1

GW-2580 + Tozasertib = compound: COC1=CC=C(C=C1)COC2=C(C=C(C=C2)CC3=CN=C(N=C3N)N)OC [GW-2580] + Cc1cc(Nc2cc(N3CCN(C)CC3)nc(Sc3ccc(NC(=O)C4CC4)cc3)n2)n[nH]1 [Tozasertib] (partner 0.1 µM)
How it was run: as §1

GW-2580 + Decitabine = compound: COC1=CC=C(C=C1)COC2=C(C=C(C=C2)CC3=CN=C(N=C3N)N)OC [GW-2580] + Nc1ncn([C@H]2C[C@H](O)[C@@H](CO)O2)c(=O)n1 [Decitabine] (partner 2 µM)
How it was run: as §1

GW-2580 + Bortezomib = compound: COC1=CC=C(C=C1)COC2=C(C=C(C=C2)CC3=CN=C(N=C3N)N)OC [GW-2580] + CC(C)C[C@H](NC(=O)[C@H](Cc1ccccc1)NC(=O)c1cnccn1)B(O)O [Bortezomib] (partner 0.002 µM)
How it was run: as §1

Cell Line	relative viability (GW-2580 + Phenformin; first compound 0.08 µM)	relative viability (GW-2580 + Phenformin; first compound 0.8 µM)	relative viability (GW-2580 + Phenformin; first compound 2.53 µM)	relative viability (GW-2580 + Phenformin; first compound 8 µM)	relative viability (Fedratinib + Dasatinib; first compound 0.1 µM)	relative viability (Fedratinib + Dasatinib; first compound 0.3162 µM)	relative viability (Fedratinib + Dasatinib; first compound 1 µM)	relative viability (GW-2580 + Tozasertib; first compound 0.08 µM)	relative viability (GW-2580 + Tozasertib; first compound 0.8 µM)	relative viability (GW-2580 + Tozasertib; first compound 2.53 µM)	relative viability (GW-2580 + Tozasertib; first compound 8 µM)	relative viability (GW-2580 + Decitabine; first compound 0.08 µM)	relative viability (GW-2580 + Decitabine; first compound 0.8 µM)	relative viability (GW-2580 + Decitabine; first compound 2.53 µM)	relative viability (GW-2580 + Decitabine; first compound 8 µM)	relative viability (GW-2580 + Bortezomib; first compound 0.08 µM)	relative viability (GW-2580 + Bortezomib; first compound 0.8 µM)	relative viability (GW-2580 + Bortezomib; first compound 2.53 µM)	relative viability (GW-2580 + Bortezomib; first compound 8 µM)
NCI-H2023	0.466	0.423	0.336	0.382	0.614	0.476	0.394	0.475	0.431	0.522	0.342	0.22	0.239	0.222	0.296	1.01	1.14	0.733	0.904
NCI-H2085	0.756	0.739	0.682	0.769	0.259	0.26	0.246	0.698	0.8	0.667	0.748	0.577	0.542	0.541	0.589	1.11	1.12	1.19	1.03
NCI-H2087	0.526	0.473	0.352	0.444	0.803	0.536	0.648	0.242	0.263	0.249	0.212	0.276	0.267	0.237	0.276	0.966	1.16	0.79	0.872
NCI-H2126	0.52	0.535	0.543	0.526	0.577	0.655	0.426	0.889	0.933	0.822	0.794	0.582	0.614	0.574	0.569	1.14	1.24	1.03	1.14
NCI-H2347	0.423	0.482	0.241	0.47	0.311	0.275	0.435	0.538	0.745	0.508	0.401	0.676	0.662	0.582	0.587	1.01	1.23	0.842	1.26
NCI-H2405	0.401	0.393	0.308	0.333	0.191	0.244	0.159	0.8	0.726	0.656	0.524	0.739	0.766	0.746	0.729	1.02	1.03	0.807	0.951
NCI-H3122	0.41	0.366	0.339	0.341	0.747	0.738	0.816	0.549	0.421	0.468	0.362	0.377	0.411	0.437	0.54	1.04	0.939	1.1	1.11
PC-3 [JPC-3]	0.472	0.489	0.489	0.464	1.11	0.905	0.966	0.89	0.916	0.891	0.854	0.8	0.855	0.829	0.783	0.886	1.01	0.846	0.792
PC-14	0.358	0.82	0.494	0.615	0.167	0.272	0.143	0.665	0.68	0.514	0.468	0.191	0.198	0.236	0.221	0.934	1.09	0.779	0.95
RERF-LC-KJ	0.435	0.418	0.445	0.395	0.683	0.768	0.655	0.474	0.593	0.508	0.367	0.687	0.799	0.673	0.658	1.22	1.06	1.04	1.08
SK-LU-1	0.559	0.731	0.383	0.537	0.143	0.169	0.165	0.362	0.338	0.272	0.292	0.631	0.673	0.55	0.668	0.902	1.42	0.73	1.54
SW 1573	0.334	0.383	0.401	0.4	0.612	0.614	0.305	0.183	0.2	0.219	0.24	0.498	0.58	0.422	0.537	0.903	0.932	0.987	0.798
